Reference: the NIST ThermoML archive (doi:10.1021/je900722m)
Numbers after ± are expanded uncertainties.

Assay: xn = mol fraction of the nth substance listed
Conditions: 101 kPa, Liquid

CC(C)CO [2-methyl-1-propanol] + CCCCO
Conditions | mass density, 303.15 K [kg/m3] | mass density, 308.15 K [kg/m3] | mass density, 313.15 K [kg/m3] | mass density, 318.15 K [kg/m3] | mass density, 323.15 K [kg/m3] | viscosity, 303.15 K [mPa·s] | viscosity, 308.15 K [mPa·s] | viscosity, 313.15 K [mPa·s] | viscosity, 318.15 K [mPa·s] | viscosity, 323.15 K [mPa·s]
x2 = 0.101 | 794.896 ± 0.45 | 790.969 ± 0.46 | 786.977 ± 0.46 | 782.93 ± 0.47 | 778.816 ± 0.48 | 3.447 ± 0.057 | 2.987 ± 0.05 | 2.591 ± 0.044 | 2.236 ± 0.038 | 1.964 ± 0.034
x2 = 0.2029 | 795.74 ± 0.45 | 791.819 ± 0.46 | 787.84 ± 0.46 | 783.806 ± 0.47 | 779.704 ± 0.47 | 3.443 ± 0.057 | 2.983 ± 0.05 | 2.587 ± 0.044 | 2.234 ± 0.038 | 1.958 ± 0.034
x2 = 0.3008 | 796.558 ± 0.45 | 792.643 ± 0.45 | 788.67 ± 0.46 | 784.646 ± 0.47 | 780.558 ± 0.47 | 3.389 ± 0.057 | 2.939 ± 0.049 | 2.562 ± 0.043 | 2.219 ± 0.038 | 1.951 ± 0.034
x2 = 0.4 | 797.382 ± 0.45 | 793.476 ± 0.45 | 789.511 ± 0.46 | 785.496 ± 0.46 | 781.419 ± 0.47 | 3.313 ± 0.055 | 2.871 ± 0.048 | 2.511 ± 0.043 | 2.191 ± 0.038 | 1.931 ± 0.033
x2 = 0.5 | 798.209 ± 0.44 | 794.307 ± 0.45 | 790.349 ± 0.46 | 786.344 ± 0.46 | 782.279 ± 0.47 | 3.237 ± 0.054 | 2.804 ± 0.047 | 2.462 ± 0.042 | 2.158 ± 0.037 | –
x2 = 0.5999 | 799.026 ± 0.44 | 795.132 ± 0.45 | 791.184 ± 0.46 | 787.188 ± 0.46 | – | 3.166 ± 0.053 | 2.752 ± 0.046 | 2.424 ± 0.041 | 2.129 ± 0.037 | –
x2 = 0.6999 | 799.838 ± 0.44 | 795.953 ± 0.45 | 792.012 ± 0.45 | 788.027 ± 0.46 | – | 3.102 ± 0.052 | 2.708 ± 0.046 | 2.391 ± 0.041 | 2.111 ± 0.036 | –
x2 = 0.7993 | 800.635 ± 0.44 | 796.757 ± 0.45 | 792.829 ± 0.45 | 788.855 ± 0.46 | – | 3.04 ± 0.051 | 2.669 ± 0.045 | 2.363 ± 0.04 | 2.094 ± 0.036 | –
x2 = 0.8995 | 801.426 ± 0.44 | 797.554 ± 0.44 | 793.633 ± 0.45 | 789.67 ± 0.46 | – | 2.971 ± 0.05 | 2.62 ± 0.044 | 2.327 ± 0.04 | 2.068 ± 0.036 | –
